Tests used:
[1] = Aqueous surface tension (Cahn microbalance, sand blasted platinum blade); format: physicochemical; details: 0.1 wt % in 0.005M NaCl water (deionized), 25° C.
Method: Surface tension was measured using a Cahn microbalance, with a sand blasted platinum blade as the sensor. Solutions of the various components were prepared at 0.1 wt % in 0.005M NaCl water (Deionized), as an equilibrium aid. Aqueous solutions of these unique compositions provide a significant reduction in surface tension relative to conventional surfactants.

[2] = Spreading of a 10 μL droplet of surfactant solution on polyester film; format: physicochemical; details: 10 μL droplet on polyester film (3M, IR 1140), after 30 seconds
Method: Spreading was determined by applying a 10 μL droplet of surfactant solution to a polyester film (3M, IR 1140 transparency film) and measuring the spread diameter after 30 seconds. The solution was applied with an automatic pipette to provide droplets of reproducible volume. Deionized water that was further purified with a Millipore filtration system was used to prepare the surfactant solutions.

Surface Tension (mN/m) [1]: 21 mN/m
Spread Diameter (mm) 0.1 wt% ([2]; 0.1 wt% solution): 44 mm
Spread Diameter (mm) 0.2 wt% ([2]; 0.2 wt% solution): 42 mm
Substance: Me3SiO[MeSi(C3H6O(C2H4O)8H)O]1SiMe3 [SIL-A]

Reference: patent publication US6890886B2, “Agricultural compositions employing organosiloxanes containing polyhydric groups” (General Electric Company, priority 2000, dated 2005)
